Patent publication US20240358692A1, “TREATMENT OF SCLERODERMA” (Aisa Pharma, Inc., priority 2023, published 2024)

How the values were obtained:
[1] = cilnidipine given orally; cited from earlier work
participants with SSc-RP = test: Average daily Raynaud's Condition Score (RCS); format: in vivo, human; set-up: key to Average Daily RCS, Mean / Average Daily RCS, Median / Average Daily RCS Change from Baseline, Mean / Average Daily RCS Change from Baseline, Median: RCS rated on a 0-10 cm VAS scale; details: ITT Population - Part A; for Average Daily RCS, Mean / Average Daily RCS, Median: dosing period
Text: The RCS is based on how much difficulty participants had with Raynaud's today, how many attacks the participant had, and how long they lasted. In addition participants were and will be asked to consider how much pain, numbness, or other symptoms the Raynaud's caused in fingers (including painful sores), and how much the Raynaud's along affected the use of hand today (VAS 0-10 cm scale).
The absolute change in average daily RCS from baseline to the end of each dosing period was and will be a secondary outcome variable. The sponsor-developed participant-informed diary has been and will be used to record data. The average daily RCS is defined as the total RCS divided by the number of days with available diary data of each dosing period. Total RCS during screening period divided by the number of days with available data will be used as baseline for the analysis of all periods. If there are multiple daily RCS scores, the latest daily RCS will be used. The variable will be calculated similar to frequency data as before.

[2] = cited from earlier work
[3] = Excluding Outliers, dose cilnidipine 10 mg, tadalafil 5 mg, alone or combined as labelled
[4] = Excluding Outliers, dose cilnidipine 20 mg, tadalafil 5 mg, alone or combined as labelled
[5] = Excluding Outliers, pooled arms Cilnidipine 10 mg and Cilnidipine 10 mg + Tadalafil 5 mg
[6] = Excluding Outliers, pooled arms Cilnidipine 20 mg and Cilnidipine 20 mg + Tadalafil 5 mg
[7] = Excluding Outliers, pooled cilnidipine 10 mg and 20 mg arms (combination: + tadalafil 5 mg)
[8] = dose cilnidipine 10 mg, tadalafil 5 mg, alone or combined as labelled
[9] = dose cilnidipine 20 mg, tadalafil 5 mg, alone or combined as labelled
[10] = pooled arms Cilnidipine 10 mg and Cilnidipine 10 mg + Tadalafil 5 mg
[11] = pooled arms Cilnidipine 20 mg and Cilnidipine 20 mg + Tadalafil 5 mg
[12] = pooled cilnidipine 10 mg and 20 mg arms (combination: + tadalafil 5 mg)

COCCOC(=O)C1=C(C)NC(C)=C(C(=O)OC/C=C/c2ccccc2)C1c1cccc([N+](=O)[O-])c1 (stereo not drawn) [Cilnidipine]
protein bound [1]: 98% | Average Daily RCS Change from Baseline, Mean (participants with SSc-RP; [3]): −0.98 | Average Daily RCS Change from Baseline, Median (participants with SSc-RP; [3]): −0.98 | Average Daily RCS Percent Change from Baseline, Mean (participants with SSc-RP; [3]): −35.74% | Average Daily RCS Percent Change from Baseline, Median (participants with SSc-RP; [3]): −35.74% | Average Daily RCS Change from Baseline, Mean (participants with SSc-RP; [4]): −0.45 | Average Daily RCS Change from Baseline, Median (participants with SSc-RP; [4]): −0.45 | Average Daily RCS Percent Change from Baseline, Mean (participants with SSc-RP; [4]): −17.16% | Average Daily RCS Percent Change from Baseline, Median (participants with SSc-RP; [4]): −17.16% | Average Daily RCS, Mean (participants with SSc-RP; [3]): 1.76 | Average Daily RCS, Median (participants with SSc-RP; [3]): 1.76 | Average Daily RCS, Mean (participants with SSc-RP; [4]): 2.90 | Average Daily RCS, Median (participants with SSc-RP; [4]): 2.90 | Average Daily RCS, Mean (participants with SSc-RP; [5]): 2.43 | Average Daily RCS, Median (participants with SSc-RP; [5]): 1.76 | Average Daily RCS, Mean (participants with SSc-RP; [6]): 3.60 | Average Daily RCS, Median (participants with SSc-RP; [6]): 3.82 | Average Daily RCS, Mean (participants with SSc-RP; [7]): 2.52 | Average Daily RCS, Median (participants with SSc-RP; [7]): 1.76 | Average Daily RCS Change from Baseline, Mean (participants with SSc-RP; [5]): −1.64 | Average Daily RCS Change from Baseline, Median (participants with SSc-RP; [5]): −1.51 | Average Daily RCS Percent Change from Baseline, Mean (participants with SSc-RP; [5]): −41.77% | Average Daily RCS Percent Change from Baseline, Median (participants with SSc-RP; [5]): −36.47% | Average Daily RCS Change from Baseline, Mean (participants with SSc-RP; [6]): −1.08 | Average Daily RCS Change from Baseline, Median (participants with SSc-RP; [6]): −0.59 | Average Daily RCS Percent Change from Baseline, Mean (participants with SSc-RP; [6]): −18.93% | Average Daily RCS Percent Change from Baseline, Median (participants with SSc-RP; [6]): −20.71% | Average Daily RCS Change from Baseline, Mean (participants with SSc-RP; [7]): −0.63 | Average Daily RCS Change from Baseline, Median (participants with SSc-RP; [7]): −0.98 | Average Daily RCS Percent Change from Baseline, Mean (participants with SSc-RP; [7]): −23.35% | Average Daily RCS Percent Change from Baseline, Median (participants with SSc-RP; [7]): −35.74% | Average Daily RCS Change from Baseline, Mean (participants with SSc-RP; [8]): −0.98 | Average Daily RCS Change from Baseline, Median (participants with SSc-RP; [8]): −0.98 | Average Daily RCS Percent Change from Baseline, Mean (participants with SSc-RP; [8]): −35.74% | Average Daily RCS Percent Change from Baseline, Median (participants with SSc-RP; [8]): −35.74% | Average Daily RCS Change from Baseline, Mean (participants with SSc-RP; [9]): −0.45 | Average Daily RCS Change from Baseline, Median (participants with SSc-RP; [9]): −0.45 | Average Daily RCS Percent Change from Baseline, Mean (participants with SSc-RP; [9]): −17.16% | Average Daily RCS Percent Change from Baseline, Median (participants with SSc-RP; [9]): −17.16% | Average Daily RCS, Mean (participants with SSc-RP; [8]): 1.76 | Average Daily RCS, Median (participants with SSc-RP; [8]): 1.76 | Average Daily RCS, Mean (participants with SSc-RP; [9]): 2.90 | Average Daily RCS, Median (participants with SSc-RP; [9]): 2.90 | Average Daily RCS, Mean (participants with SSc-RP; [10]): 2.43 | Average Daily RCS, Median (participants with SSc-RP; [10]): 1.76 | Average Daily RCS, Mean (participants with SSc-RP; [11]): 3.60 | Average Daily RCS, Median (participants with SSc-RP; [11]): 3.82 | Average Daily RCS, Mean (participants with SSc-RP; [12]): 2.52 | Average Daily RCS, Median (participants with SSc-RP; [12]): 1.76 | Average Daily RCS Change from Baseline, Mean (participants with SSc-RP; [10]): −1.64 | Average Daily RCS Change from Baseline, Median (participants with SSc-RP; [10]): −1.51 | Average Daily RCS Percent Change from Baseline, Mean (participants with SSc-RP; [10]): −41.77% | Average Daily RCS Percent Change from Baseline, Median (participants with SSc-RP; [10]): −36.47% | Average Daily RCS Change from Baseline, Mean (participants with SSc-RP; [11]): −1.08 | Average Daily RCS Change from Baseline, Median (participants with SSc-RP; [11]): −0.59 | Average Daily RCS Percent Change from Baseline, Mean (participants with SSc-RP; [11]): −18.93% | Average Daily RCS Percent Change from Baseline, Median (participants with SSc-RP; [11]): −20.71% | Average Daily RCS Change from Baseline, Mean (participants with SSc-RP; [12]): −0.63 | Average Daily RCS Change from Baseline, Median (participants with SSc-RP; [12]): −0.98 | Average Daily RCS Percent Change from Baseline, Mean (participants with SSc-RP; [12]): −23.35% | Average Daily RCS Percent Change from Baseline, Median (participants with SSc-RP; [12]): −35.74% | CL/F ([2]; 10 mg Cilnidipine, Healthy Volunteers, single oral dose, mean): 304.7 L/h | time to achieve maximal plasma concentrations (Tmax) ([2]; oral dosing): ≤ 2 h
